Counter-ions that a name gives are not always drawn.
Assays:
depression patients = settings: STAR*D study, over 2800 depression patients; cited from earlier work
[1] = system: unpredictably long-term stressed rats; test: unpredictable long-term stimulus (CUMS) experiment on rats: open field box test; type: in vivo, rat; settings: CUMS model rats, 21 consecutive days; low dose of Embodiment 1 (15 mg/kg/d) or positive group; vs control P<0.01
Description: (§1) The inventor conducted animal behavior experiments, including the tail-hang experiment on mice, the forced-swim experiment on rats, the forced-swim experiment on mice, the unpredictable long-term stimulus experiment on rats, the olfactory bulb lesion experiment on rats and others, according to the pathogenetic mechanism and clinical symptoms of depression. 1.2 The pharmaceutical composition of Embodiment 1 was intragastrically administered to rats under the chronic unpredictable mild stress (CUMS) model with the dose of 15 mg/kg/d, 30 mg/kg/d and 60 mg/kg/d for 21 consecutive days.

[2] = system: unpredictably long-term stressed rats; test: unpredictable long-term stimulus (CUMS) experiment on rats: jumping test; type: in vivo, rat; settings: CUMS model rats, 21 consecutive days; low dose of Embodiment 1 (15 mg/kg/d) or positive group; vs control P<0.01
Description: as §1

[3] = system: olfactory bulb lesion model rats; test: olfactory bulb lesion experiment: open field box test; type: in vivo, rat; settings: 24 consecutive days, high dose of Embodiment 1 (60 mg/kg/d) or Paroxetine of 3 mg/kg/d, compared to control group
Description: The inventor conducted animal behavior experiments, including the tail-hang experiment on mice, the forced-swim experiment on rats, the forced-swim experiment on mice, the unpredictable long-term stimulus experiment on rats, the olfactory bulb lesion experiment on rats and others, according to the pathogenetic mechanism and clinical symptoms of depression. 1.3 The pharmaceutical composition of Embodiment 1 was intragastrically administered to olfactory bulb lesion model rats with the dose of 15 mg/kg/d, 30 mg/kg/d and 60 mg/kg/d for 24 consecutive days.

cAMP = test: level of cAMP in hippocampus of normal rats 8 hours after administration (ELISA); type: in vivo, rat; settings: 8 hours after intragastric 5 mg/kg (positive control drug)
Method: 8 hours after normal rats were intragastrically administered with the pharmaceutical of Embodiment 1, their hippocampi were taken out. The variations in the levels of cAMP and phospho-CREB (p-CREB) in the hippocampus were determined using enzyme-linked immunosorbent assay (ELISA), the variations on the activities of the cAMP-dependent PKA were determined using bioluminescent assay, and the variations in the activities of PDE were determined using a fluorescence method. […] The experimental data were statistically analyzed and plotted using Origin […].5 software. 2. […] The sample was determined using the ParameterTM Cyclic AMP Assay ELISA kit (R&D Systems, Inc., U.S.). The sample was defrosted to room temperature, and the level of cAMP in the sample was determined using competitive ELISA. The value of optical density (OD) of the sample was determined at 450 nm using the multi-mode microplate reader, and the level of cAMP in the sample was calculated according to the standard curve. 5.1 The level of cAMP in the rat's hippocampus: The cAMP concentration in the homogenate of the rat's hippocampus was determined using the ELISA assay, and the level of cAMP contained in the hippocampus tissue was obtained by dividing the […], and is presented as pmol/g tissue (referring to FIG. 5).

forced-swim rats = test: forced-swim experiment on rats; type: in vivo, rat; settings: intragastric, one week; Embodiment 1 medium dose 30 mg/kg/d, or positive control; vs control P<0.05
Description: (§2) The inventor conducted animal behavior experiments, including the tail-hang experiment on mice, the forced-swim experiment on rats, the forced-swim experiment on mice, the unpredictable long-term stimulus experiment on rats, the olfactory bulb lesion experiment on rats and others, according to the pathogenetic mechanism and clinical symptoms of depression.

tail-hanged mice = test: tail-hang experiment on mice; type: in vivo; settings: intragastric, one week; Embodiment 1 medium dose 40 mg/kg/d, or positive control; vs control P<0.05
Description: as §2

[4] = system: unpredictably long-term stressed rats; test: unpredictable long-term stimulus (CUMS) experiment on rats: sucrose intake measurement; type: in vivo, rat; settings: CUMS model rats, 21 consecutive days; low dose of Embodiment 1 (15 mg/kg/d) or positive group; vs control P<0.01
Description: as §1

forced-swim mice = test: forced-swim experiment on mice; type: in vivo; settings: intragastric, one week; Embodiment 1 medium dose 40 mg/kg/d, or positive control; vs control P<0.05
Description: as §2

[5] = system: unpredictably long-term stressed rats; test: unpredictable long-term stimulus (CUMS) experiment on rats: body weight measurement; type: in vivo, rat; settings: CUMS model rats, 21 consecutive days; low dose of Embodiment 1 (15 mg/kg/d) or positive group; compared to control group
Description: as §1

[6] = system: phosphodiesterase 4 (PDE4); settings: cited from earlier work

SMILES: COc1ccc(C(CN(C)C)C2(O)CCCCC2)cc1.Cl (stereo not shown) [Effexor®]
- remission rate (depression patients): about 30%

SMILES: Fc1ccc([C@@H]2CCNC[C@H]2COc2ccc3c(c2)OCO3)cc1 [Paroxetine, Paroxetine hydrochloride]
- horizontal movement and vertical movement [1]: significantly increased
- number of errors in rat jumping trial [2]: significantly decreased
- decrease of the horizontal movement and vertical movement caused by the olfactory bulb lesion (open field box test) [3]: significantly improved
- initiation of the cAMP-PKA-CREB (p-CREB) pathway (cAMP): cannot initiate
- non-movement time for the forced-swim rats (forced-swim rats): significantly shorter
- non-movement time for the tail-hanged mice (tail-hanged mice): significantly shorter
- sucrose consumption [4]: significantly increased
- non-movement time for the forced-swim mice (forced-swim mice): significantly shorter
- body weight gains [5]: significantly increased

SMILES: COc1ccc(C2CNC(=O)C2)cc1OC1CCCC1 (stereo not shown) [Rolipram®]
- side effects ([6]; background statement): severe emesis
- anti-depression effect ([6]; experimental results referred to in background): significant anti-depression effect

SMILES: Br.CN(C)CCCC1(c2ccc(F)cc2)OCc2cc(C#N)ccc21 (stereo not shown) [Celexa®]
- remission rate (depression patients): about 30%

SMILES: Cl.O=C1CC2(CCCC2)CC(=O)N1CCCCN1CCN(c2ncccn2)CC1 [Buspar®]
- remission rate (depression patients): about 30%

SMILES: CC(NC(C)(C)C)C(=O)c1cccc(Cl)c1.Cl (stereo not shown) [Wellbutrin®]
- remission rate (depression patients): about 30%

SMILES: CN[C@H]1CC[C@@H](c2ccc(Cl)c(Cl)c2)c2ccccc21.Cl [Zoloft®]
- remission rate (depression patients): about 30%
